Patent US7294642B2, “1,3-Diamino-2-hydroxypropane pro-drug derivatives” (Elan Pharmaceuticals, Inc., priority 2002, dated 2007)

Assay: Acyl group migration (rearrangement) of pro-drug in DMSO-d6/buffer solution monitored by 19F-NMR
Assay type: physicochemical
Procedure: A compound of formula (I) OR (X) (5 mg) is dissolved in DMSO-d6 (500 μL) and either pH 4 buffer solution (500 μL, potassium hydrogen phthalate buffer) or pH 7 buffer solution (500 μL, sodium and potassium phosphate buffer) is added. The sample is then heated to 40° C. The O-acyl or N-acyl to N-terminal N-acyl migration is monitored by observing the change in chemical shift for the aromatic fluorines using ^19F-NMR. (Fluorine shifts associated with the desired migration were confirmed by spiking with authentic analogue). The sample is analyzed by ^19F-NMR at approxiamately 0, 1.5, 3, 24, 48, and 144 hours. The amount of O-acyl pro-drug, N-acyl pro-drug, and desired migration product at each time point are assigned by integrating the corresponding NMR signal.
N˜1˜-[(2R,3S)-3-amino-4-(3,5-difluorophenyl)-2-hydroxybutyl]-5-(1,3-oxazol-2-yl)-N˜3˜,N˜3˜-dipropyl-N˜1˜-[3-(trifluoromethyl)benzyl]isophthalamide hydrochloride (PREPARATION 7, 5 mg) is dissolved in DMSO-d6 (500 μL) and pH 4 buffer solution (500 μL, potassium hydrogen phthalate buffer) is added. The sample is then heated to 40° C. The N-acyl to N-terminal N-acyl migration is monitored by observing the change in chemical shift for the aromatic fluorines using ^19F-NMR. (Fluorine shifts for the desired migration product in the presence of buffer was confirmed by spiking with authentic migration product, N^1-((1S,2R)-1-(3,5-difluorobenzyl)-2-hydroxy-3-{[3-(trifluoromethyl)benzyl]amino}propyl)-5-(1,3-oxazol-2-yl)-N^3,N^3-dipropylisophthalamide.) NMR data is collected at 0, 1, 3, 25, 48, 96, and 144 hours. The amount of N-acyl pro-drug and desired migration product present at each time point is assigned by integrating the corresponding NMR signal.
The following examples illustrate the solution acyl group migration of compounds of the formulae (I) and (X) as observed by ^19F NMR spectroscopy. Data were collected as described in Example 1, above.

HEA product (% present) (pH 4, 40° C., time 0 hr): 0% | N-acyl prodrug (% present) (pH 4, 40° C., time 0 hr): 0% | O-acyl pro-drug (% present) (pH 4, 40° C., time 0 hr): 100% | HEA product (% present) (pH 4, 40° C., time 1.5 hr): 54% | N-acyl prodrug (% present) (pH 4, 40° C., time 1.5 hr): 14% | O-acyl pro-drug (% present) (pH 4, 40° C., time 1.5 hr): 32% | HEA product (% present) (pH 4, 40° C., time 3 hr): 74% | N-acyl prodrug (% present) (pH 4, 40° C., time 3 hr): 18% | O-acyl pro-drug (% present) (pH 4, 40° C., time 3 hr): 8% | HEA product (% present) (pH 4, 40° C., time 30 hr): 79% | N-acyl prodrug (% present) (pH 4, 40° C., time 30 hr): 21% | O-acyl pro-drug (% present) (pH 4, 40° C., time 30 hr): 0% | HEA product (% present) (pH 4, 40° C., time 54 hr): 80% | N-acyl prodrug (% present) (pH 4, 40° C., time 54 hr): 20% | O-acyl pro-drug (% present) (pH 4, 40° C., time 54 hr): 0% | HEA product (% present) (pH 4, 40° C., time 126 hr): 86% | N-acyl prodrug (% present) (pH 4, 40° C., time 126 hr): 14% | O-acyl pro-drug (% present) (pH 4, 40° C., time 126 hr): 0% | HEA product (% present) (pH 7, 40° C., time 0 hr): 0% | N-acyl prodrug (% present) (pH 7, 40° C., time 0 hr): 0% | O-acyl pro-drug (% present) (pH 7, 40° C., time 0 hr): 100% | HEA product (% present) (pH 7, 40° C., time 1.5 hr): 34% | N-acyl prodrug (% present) (pH 7, 40° C., time 1.5 hr): 66% | O-acyl pro-drug (% present) (pH 7, 40° C., time 1.5 hr): 0% | HEA product (% present) (pH 7, 40° C., time 7 hr): 41% | N-acyl prodrug (% present) (pH 7, 40° C., time 7 hr): 59% | O-acyl pro-drug (% present) (pH 7, 40° C., time 7 hr): 0% | HEA product (% present) (pH 7, 40° C., time 24 hr): 57% | N-acyl prodrug (% present) (pH 7, 40° C., time 24 hr): 43% | O-acyl pro-drug (% present) (pH 7, 40° C., time 24 hr): 0% | HEA product (% present) (pH 7, 40° C., time 48 hr): 73% | N-acyl prodrug (% present) (pH 7, 40° C., time 48 hr): 27% | O-acyl pro-drug (% present) (pH 7, 40° C., time 48 hr): 0% | HEA product (% present) (pH 7, 40° C., time 144 hr): 84% | N-acyl prodrug (% present) (pH 7, 40° C., time 144 hr): 16% | O-acyl pro-drug (% present) (pH 7, 40° C., time 144 hr): 0%
SMILES: CCCN(CCC)C(=O)c1cc(C(=O)O[C@H](CNCc2cccc(C(F)(F)F)c2)[C@@H](N)Cc2cc(F)cc(F)c2)cc(-c2ncco2)c1.Cl.Cl [Preparation 18, (1R,2S)-2-amino-3-(3,5-uorophenyl)-1-({[3-(trifluoromethyl)benzyl]amino}methyl)propyl 3-[(dipropylamino)carbonyl]-5-(1,3-oxazol-2-yl)benzoate dihydrochloride]
